Experiments:
[1] = test system: NRASD12 expressing NIH3T3 cells; assay: Immunofluorescence localization of NRASD12 after FASN inhibitor treatment; type: cell-based; settings: 1 uM, 3 hrs post-treatment, anti-myc-tag immunofluorescence
Experimental: Localization of myc-tagged NRASD12 in MSCV-GFP-ires-2xmycNRASD12 infected NIH3T3 cells 3 hrs post-treatment with 1 uM cerulenin or 1 uM C75. NRASD12 were visualized by confocal microscope after probing with anti-myc-tag (9E10) antibody overnight at 4° C. and AlexaFluor-conjugated secondary antibody (red).
As a proof of principle studies of the effect of FASN inhibitors on NRAS palmitoylation/localization, we examined the effect of cerulenin and C75 on NRASD12 expressing NIH3T3 cells.

[2] = mouse, in vivo; cited from earlier work
[3] = caused by highly reactive epoxy group; cited from earlier work
[4] = test system: murine DHHC9 mRNA; assay: Real-time RT-PCR of DHHC9 mRNA after siRNA transfection; type: cell-based; settings: NIH3T3 cells, compared to scrambled siRNA
Experimental: (§1) (A) Relative DHHC9 (SEQ ID NO: 10) mRNA levels in NIH3T3 cells transfected by either DHHC9 (SEQ ID NO: 10) siRNA or control siRNA were determined by real-time RT-PCR. (B) GFP-NRASD12 expressing NIH3T3 cells transfected by either DHHC9 (SEQ ID NO: 10) siRNA or control siRNA were visualized by confocal microscope. Original magnification was 630×.
(§2) To determine the role of DHHC9 (SEQ ID NO: 10) in NRAS biology, we first examined the effect of DHHC9 (SEQ ID NO: 10) downregulation on cellular localization of oncogenic NRAS (NRASD12). RNA interference (RNAi) is a powerful tool for gene function studies and holds promise for the development of new molecular medicines. RNAi usually downregulate but often not abolish the target mRNAs, which mimic therapies more than gene-knockout. In addition, since DHHC9 (SEQ ID NO: 10) may have substrates other than RAS, knocking out the DHHC9 (SEQ ID NO: 10) gene might be toxic to cells. For these reasons we tested several small interference RNA (siRNA) specific to murine DHHC9 (SEQ ID NO: 10) for their ability to downregulate the DHHC9 (SEQ ID NO: 10) mRNA. […] Still further, the present invention provides systems for identifying cancer patients likely to respond to therapy that includes administration of one or more palmitoyl-acyl transferase inhibitors.

[5] = test system: NIH3T3 cells expressing the GFP-NRASD12 fusion protein; assay: Confocal localization of GFP-NRASD12 after DHHC9 siRNA transfection; type: cell-based; settings: confocal microscopy
Experimental: as §1, §2

[6] = test system: FASN; assay: Western blot of FASN expression after FASN miRNA transduction; type: cell-based; settings: NIH3T3 cell lines, puromycin selected (data not shown)
Source text: (§3) We then examined the effect of knocking down FASN expression on RAS localization by the RNA interference (RNAi) approach. RNAi is endogenously mediated by microRNA (miRNA) ^30. miRNAs are generated from primary transcripts (pri-miRNAs) and processed into pre-miRNA and eventually mature miRNA. Artificial miRNAs are natural pri-miRNA in which the stem sequence of a miRNA has been substituted with a sequence targeting the gene of interest. In target cells, artificial miRNA undergoes the same processing steps of the parental pri-miRNA. A FASN specific small hairpin (sh) RNA (Open-Biosystems) was cloned into a MSCV-based retroviral shRNAmir (pSM2; Open-Biosystems) vector to generate an artificial miRNA for FASN (the cloning oligo for the FASN shRNA: 5′ TGCTGTTGACAGTGAGCGCCGCTTCTTAGAGATTGGCAAATAGTGAAGCCACAGATGTATTTGCCAATCTCTAAGAAGCGATGCCTACTGCCTCGGA 3′ (SEQ ID NO: 35)). The miRNA is under the control a U6 promoter and the vector includes a puromycin resistance gene under the control of phosphoglycerate kinase (PGK) eukaryotic promoter ^31. A scrambled shRNA (the cloning oligo: 5′ TGCTGTTGACAGTGAGCGCTTCCTCTCTTTCTCTCCCTTTA GTGAAGCCACAGATGTACAAGGGAGAGAAAGAGAGGAAGGATGCCTACTGCCTCGGA 3′ (SEQ ID NO: 36)) was similarly cloned into pSM2 as a control. […]

[7] = test system: 3T3-GFP-NRASD12 cells; assay: Confocal localization of GFP-NRASD12 after FASN miRNA transduction; type: cell-based; settings: confocal microscopy
Source text: (§4) Fixed and permeablized cells were stained with an anti-BIP antibody, followed by an alexafluor 635-conjugated secondary antibody, and visualized on a Leica TCS SP2 Spectral Confocal Microscope. Original magnification was 630×.
as §3, with “^31.” for “^31. A scrambled shRNA (the cloning oligo: 5′ TGCTGTTGACAGTGAGCGCTTCCTCTCTTTCTCTCCCTTTA GTGAAGCCACAGATGTACAAGGGAGAGAAAGAGAGGAAGGATGCCTACTGCCTCGGA 3′ (SEQ ID NO: 36)) was similarly cloned into pSM2 as a control.”

[8] = test system: NIH3T3 cells expressing GFP-KRAS4BD12; assay: Confocal localization of GFP-KRAS4BD12 after FASN miRNA transduction; type: cell-based; settings: confocal microscopy
Source text: as §4
as §3, with “^31.” for “^31. A scrambled shRNA (the cloning oligo: 5′ TGCTGTTGACAGTGAGCGCTTCCTCTCTTTCTCTCCCTTTA GTGAAGCCACAGATGTACAAGGGAGAGAAAGAGAGGAAGGATGCCTACTGCCTCGGA 3′ (SEQ ID NO: 36)) was similarly cloned into pSM2 as a control.”

[9] = test system: 3T3-NRASD12 cells; assay: Cell morphology and foci (sphere) formation, 3T3-NRASD12; type: cell-based; settings: 3T3-NRASD12 cells cultured for 6 days
Experimental: (§5) FIG. 16 illustrates the morphology of cultured NIH3T3 cells stably expressing the proteins and miRNAs indicated. Equal numbers (5×10^5) of cells were plated onto 100-mm plates after puromycin selection and were cultured for 6 days before representative pictures were taken (original magnification 100×)
(§6) Both 3T3-NRASD12 ^28 and 3T3-KRAS4BD12 form sphere-like foci in culture, while 3T3-MiG cells grow as normal NIH3T3 cells (FIG. 16). […] We plated equal cell numbers of scrambled or FASN miRNA-transduced, puromycin-selected 3T3-NRASD12 or 3T3-KRASD12 cell lines cultured for 6 days and observed cell morphology and foci formation (FIG. 16). […] However, these cells had somewhat altered morphology, similar to those observed in 3T3-NRASD12^C181S cells.

[10] = test system: 3T3-KRASD12 cells; assay: Cell morphology and foci (sphere) formation, 3T3-KRASD12; type: cell-based; settings: 3T3-KRASD12 cells cultured for 6 days
Experimental: as §5, §6

In the case of C=C1C(=O)OC(CCCCCCCC)C1C(=O)O (centres unmarked) [C75], the “localization of NRASD12” value [1] is listed as “mislocalized to internal membranes” and the “effects of treatment on metabolism, weight and feeding” value [2] is listed as “increased metabolism, rapid and significant weight loss, and fasting”.

In the case of C/C=C/C/C=C/CCC(=O)[C@H]1O[C@H]1C(N)=O [cerulenin, Cerulenin], the “localization of NRASD12” value [1] is given as “mislocalized to internal membranes” and the stability [3] is given as “innate instability”.

With “DHHC9 siRNA: siRNA specific to murine DHHC9; sense SEQ ID NO: 37, antisense SEQ ID NO: 38 (sense GGAAGAAGAACUAUGUAUUAUAUGT; antisense ACAUAUAAUACAUAGUUCUUCUUCCCU; chemistry not given here)” the “levels of DHHC9 mRNA” value [4] was “dramatically reduced” and the “localization of GFP-NRASD12” value [5] was “mislocalization of GFP-NRASD12 to internal membranes”.

B1: FASN miRNA: FASN specific small hairpin RNA (Open-Biosystems) cloned into pSM2 retroviral shRNAmir vector; cloning oligo SEQ ID NO: 35 (nucleic acid)
DNA: TGCTGTTGACAGTGAGCGCCGCTTCTTAGAGATTGGCAAATAGTGAAGCCACAGATGTATTTGCCAATCTCTAAGAAGCGATGCCTACTGCCTCGGA
For B1, the FASN expression [6] was “largely abolished”, the “localization of GFP-NRAS” value [7] was “mislocalized to endomembranes” and the “localization of GFP-KRAS4BD12” value [8] was “localized to both the plasma membrane and internal membranes”. For the same molecule, the “sphere (foci) formation” value [9] was “no longer formed spheres” and the “sphere (foci) formation” value [10] was “formed spheres”.
